Patent US5571804A, “Cephalosporin antibiotics” (priority 1993, dated 1996)

Assays:
Test in all cases: MIC, two-fold agar dilution
Assay type in all cases: cell-based
Settings in all cases: Muller-Hinton agar, 37° C., 20 hours
[1] = tested on: Staphylococcus aureus 6538P
[2] = tested on: Staphylococcus aureus giorgio
[3] = tested on: Staphylococcus aureus 77
[4] = tested on: Staphylococcus aureus 241
[5] = tested on: Streptococcus laecalis 29212A
[6] = tested on: E. coli 10536
[7] = tested on: E. coli 3190Y
[8] = tested on: E. coli 851E
[9] = tested on: E. coli TEM1 1193E
[10] = tested on: E. coli TEM3 3455E
[11] = tested on: E. coli TEM5 3739E
[12] = tested on: E. coli TEM7 3457E
[13] = tested on: E. coli TEM9 2639E
[14] = tested on: Pseudomonas aeruginosa 1912E
[15] = tested on: Pseudomonas aeruginosa 10145
[16] = tested on: Pseudomonas aeruginosa 6065
[17] = tested on: Acinetobacter calcoaceticus 15473A
[18] = tested on: Citrobacter diversus 2046E
[19] = tested on: Enterobacter cloacae IND + VE 1194E
[20] = tested on: Enterobacter cloacae P99
[21] = tested on: Klebsiella aerogenes SHV-1 1976E
[22] = tested on: Klebsiella aerogenes K1 + 1082E
[23] = tested on: Proteus vularis 6059A
[24] = tested on: Serratia marcescens 1826E
[25] = tested on: Salmonella typhimurium 14028A

Structure (SMILES)	minimal inhibitory concentration (MIC) [1]	minimal inhibitory concentration (MIC) [2]	minimal inhibitory concentration (MIC) [3]	minimal inhibitory concentration (MIC) [4]	minimal inhibitory concentration (MIC) [5]	minimal inhibitory concentration (MIC) [6]	minimal inhibitory concentration (MIC) [7]	minimal inhibitory concentration (MIC) [8]	minimal inhibitory concentration (MIC) [9]	minimal inhibitory concentration (MIC) [10]	minimal inhibitory concentration (MIC) [11]	minimal inhibitory concentration (MIC) [12]	minimal inhibitory concentration (MIC) [13]	minimal inhibitory concentration (MIC) [15]	minimal inhibitory concentration (MIC) [16]	minimal inhibitory concentration (MIC) [17]	minimal inhibitory concentration (MIC) [18]	minimal inhibitory concentration (MIC) [19]	minimal inhibitory concentration (MIC) [20]	minimal inhibitory concentration (MIC) [21]	further results
Nc1cc(N)nc(SCC2=C(C(=O)O)N3C(=O)[C@@H](NC(=O)/C(=N\O[C@@H](C(=O)O)c4ccc(O)c(O)c4)c4csc(N)n4)[C@H]3SC2)n1 [Compound I-1R, 7-[(Z)-2-(aminothiazol-4-yl)-2-(α-carboxy-3,4-dihydroxybenzyloxyimino)acetamido]-3-(4,6-diamino-pyrimidine-2-yl) thiomethyl-3-cephem-4-carboxylate]	2	1	32	128	16	0.063	0.13	0.13	0.25	0.25	0.25	0.063	0.5	2	8	1	1	32	32	0.5	minimal inhibitory concentration (MIC) [14]: 1; minimal inhibitory concentration (MIC) [22]: 0.5; minimal inhibitory concentration (MIC) [23]: 0.5; minimal inhibitory concentration (MIC) [24]: 2; minimal inhibitory concentration (MIC) [25]: 0.13
Cc1c(N)nc(SCC2=C(C(=O)O)N3C(=O)[C@@H](NC(=O)/C(=N\O[C@@H](C(=O)O)c4ccc(O)c(O)c4)c4csc(N)n4)[C@H]3SC2)nc1N [Compound I-2R, 7-[(Z)-2-(aminothiazol-4-yl)-2-(α-carboxyl-3,4-dihydroxybenzyloxyimino)acetamido]-3-(4,6-diamino-5-methylpyrimidine-2-yl)thiomethyl-3-cephem-4-carboxylate]	2	1	32	128	32	0.063	0.13	0.13	0.5	0.25	0.25	0.016	0.5	2	8	1	2	32	32	0.5	minimal inhibitory concentration (MIC) [22]: 1; minimal inhibitory concentration (MIC) [23]: 0.5; minimal inhibitory concentration (MIC) [24]: 2; minimal inhibitory concentration (MIC) [25]: 0.25
Nc1ccnc(SCC2=C(C(=O)O)N3C(=O)[C@@H](NC(=O)/C(=N\O[C@@H](C(=O)O)c4ccc(O)c(O)c4)c4csc(N)n4)[C@H]3SC2)n1 [Compound I-3R, 7-[(Z)-2-(aminothiazol-4-yl)-2-(α-carboxyl-3,4-dihydroxybenzyloxyimino)acetamido]-3-(4-amino-pyrimidine-2-yl) thiomethyl-3-cephem-4-carboxylate]	2	2	16	128	32	0.031	0.13	0.13	0.5	0.25	0.25	0.016	0.5	2	8	1	2	32	16	1	minimal inhibitory concentration (MIC) [14]: 1; minimal inhibitory concentration (MIC) [22]: 0.5; minimal inhibitory concentration (MIC) [23]: 0.5; minimal inhibitory concentration (MIC) [24]: 2
Nc1nc(/C(=N/O[C@@H](C(=O)O)c2ccc(O)c(O)c2)C(=O)N[C@@H]2C(=O)N3C(C(=O)O)=C(CSc4nc(N)c(N)c(N)n4)CS[C@H]23)cs1 [Compound I-5R, 7-[(Z)-2-(aminothiazol-4-yl)-2-(α-carboxy-3,4-dihydroxybenzyloxyimino)acetamido]-3-(4,5,6-triaminopyrimidine-2-yl)thiomethyl-3-cephem-4-carboxylate]	2	1	32	128	16	0.063	0.063	0.13	0.25	0.25	0.25	0.063	0.5	2	8	1	1	32	32	0.25	minimal inhibitory concentration (MIC) [14]: 1; minimal inhibitory concentration (MIC) [22]: 0.5; minimal inhibitory concentration (MIC) [23]: 0.5; minimal inhibitory concentration (MIC) [24]: 2; minimal inhibitory concentration (MIC) [25]: 0.13
